According to the supplement of paper PMC10307832:

What was measured:
Test in all cases: relative viability (nuclei count vs DMSO), 5 days (fraction); higher = more cells survive
[1] = compound: C[C@@H](N)c1ccc(C(=O)Nc2ccnc3[nH]ccc23)cc1 + Nc1ncn([C@H]2C[C@H](O)[C@@H](CO)O2)c(=O)n1 [Decitabine] (partner 2 µM)
In short: (§1)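 Cells from lung cancer lines were seeded into 1536-well plates and, one day later, dosed by pin tool. Treatments were either a single drug or a fixed dose of an anchor drug with five library-drug doses (not always all listed) in √10 steps. After 5 days, nuclei were stained in a one-step fixation (final 0.05% Triton X-100, 1% formaldehyde, 1 ug/ml Hoechst) and counted on 4× images, and relative viability is the treated-to-vehicle nuclei ratio, as the median of duplicate plates.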

[2] = compound: C1CNCCC1C2=CC(=NN2)C3=CC=NC=C3 + C[C@]1(O)C[C@@H](c2nc(-c3ccc4ccc(-c5ccccc5)nc4c3)c3c(N)nccn32)C1 [Linsitinib] (partner 1 µM)
In short: as §1

Tanzisertib + Alpelisib = compound: O[C@H]1CC[C@H](Nc2ncc3nc(Nc4c(F)cc(F)cc4F)n([C@H]4CCOC4)c3n2)CC1 [Tanzisertib] + Cc1nc(NC(=O)N2CCC[C@H]2C(N)=O)sc1-c1ccnc(C(C)(C)C(F)(F)F)c1 [Alpelisib] (partner 2 µM)
In short: as §1

[3] = compound: C[C@@H](N)c1ccc(C(=O)Nc2ccnc3[nH]ccc23)cc1 + COc1cc2c(Oc3ccc(NC(=O)C4(C(=O)Nc5ccc(F)cc5)CC4)cc3F)ccnc2cc1OCCCN1CCOCC1 [Foretinib] (partner 0.25 µM)
In short: as §1

Cell Line	relative viability ([1]; first compound 0.04 µM)	relative viability ([1]; first compound 0.1265 µM)	relative viability ([1]; first compound 0.4 µM)	relative viability ([1]; first compound 1.265 µM)	relative viability ([1]; first compound 4 µM)	relative viability ([2]; first compound 0.08 µM)	relative viability ([2]; first compound 0.8 µM)	relative viability ([2]; first compound 2.53 µM)	relative viability ([2]; first compound 8 µM)	relative viability (Tanzisertib + Alpelisib; first compound 0.08 µM)	relative viability (Tanzisertib + Alpelisib; first compound 0.253 µM)	relative viability (Tanzisertib + Alpelisib; first compound 0.8 µM)	relative viability (Tanzisertib + Alpelisib; first compound 2.53 µM)	relative viability (Tanzisertib + Alpelisib; first compound 8 µM)	relative viability ([3]; first compound 0.04 µM)	relative viability ([3]; first compound 0.1265 µM)	relative viability ([3]; first compound 0.4 µM)	relative viability ([3]; first compound 4 µM)	relative viability ([3]; first compound 1.265 µM)
NCI-H1792	0.571	0.558	0.489	0.675	0.462	0.521	0.514	0.566	0.534	0.677	0.647	0.737	0.665	0.671	–	–	–	–	–
NCI-H596	1.02	1.11	1.09	1.19	1.13	0.894	1.12	1.03	1.03	0.539	0.448	0.421	0.407	0.471	1.07	0.82	0.772	0.761	–
RERF-LC-KJ	0.762	0.764	0.75	0.806	0.634	0.925	0.931	0.903	0.903	0.819	0.754	0.918	0.777	0.719	0.899	0.811	0.9	0.909	0.899
NCI-H322M	0.744	0.833	0.906	0.809	0.876	0.874	0.71	0.899	0.888	0.935	0.648	0.774	0.669	0.776	1.29	1.19	1.29	1.39	–
COR-L 105	0.651	0.674	0.627	0.495	0.526	0.986	0.896	0.965	0.926	1.19	0.832	1.07	1.09	0.924	0.755	0.939	1.03	0.761	0.865
NCI-H1993	0.649	0.603	–	0.636	0.69	0.748	0.67	0.732	0.798	0.661	0.663	0.524	0.693	0.699	0.785	0.732	0.781	0.714	0.924
NCI-H1437	0.526	0.572	0.541	0.602	0.591	0.986	1.03	1.16	1.05	0.998	1	0.964	0.958	0.722	1.29	1.35	1.35	1.35	1.37
NCI-H838	0.482	0.47	0.466	0.415	0.3	0.969	1.05	1.07	0.983	1.02	1	0.92	0.965	0.973	0.965	0.957	0.919	0.409	0.634
NCI-H1666	0.83	0.768	0.865	0.781	0.855	0.758	0.748	0.862	0.814	0.935	1.01	1.06	1.1	1.01	0.859	1.01	1.14	1.08	1.25
NCI-H1944	0.524	0.425	0.458	0.495	0.404	1.14	1.08	1.25	1.1	0.876	0.822	0.822	0.789	0.758	0.98	0.975	0.985	0.557	0.822
EBC-1	–	–	–	–	–	0.899	0.938	1.09	0.949	0.999	0.789	0.829	0.792	0.697	0.0976	0.0967	0.0934	0.092	0.0803
NCI-H1650	0.379	0.542	0.51	0.431	0.447	–	–	–	–	–	–	–	–	–	1.14	1.03	1.41	0.862	1.18
NCI-H1563	–	–	–	–	–	0.868	1.13	1.24	1.25	0.92	0.935	0.875	0.862	0.977	0.974	0.986	0.876	0.914	0.923
NCI-H1648	0.746	0.545	0.762	0.754	0.815	–	–	–	–	–	–	–	–	–	–	–	–	–	–
NCI-H1299	–	–	–	–	–	0.987	1.14	1.05	0.924	1.07	1.05	1.08	1.01	1.14	1.09	1.07	0.985	0.886	0.951
NCI-H1623	–	–	–	–	–	–	–	–	–	–	–	–	–	–	0.969	0.859	0.992	1.07	0.655
NCI-H1703	–	–	–	–	–	0.79	0.858	0.928	0.852	0.409	0.251	0.328	0.309	0.303	0.409	0.274	0.333	0.324	–
NCI-H2170	0.497	0.467	0.489	0.517	0.429	–	–	–	–	0.98	0.787	0.796	0.779	0.809	1.02	1	0.936	0.937	0.922
HCC-44	0.862	0.981	0.971	0.893	0.92	0.66	0.595	0.698	0.684	0.839	0.834	0.852	0.768	0.75	–	–	–	–	–
NCI-H522	0.704	0.683	0.727	0.694	0.715	–	–	–	–	–	–	–	–	–	–	–	–	–	–
Calu-6	–	–	–	–	–	0.877	0.941	0.994	0.884	1.12	0.96	0.934	0.994	0.988	0.981	0.973	0.878	0.742	0.807
ChaGo-K-1	0.569	0.526	0.548	0.529	0.456	–	–	–	–	–	–	–	–	–	0.93	0.955	0.885	0.799	0.918
